For assay [1], the target named is T1, Syn5 RNA polymerase (Synechococcus phage Syn5, UniProt A4ZR96).
T1 construct: gene 15; His-tagged, pET24 (NdeI/NotI), expressed in E. coli BL21(DE3); single-subunit
T1 sequence (A4ZR96 1-779): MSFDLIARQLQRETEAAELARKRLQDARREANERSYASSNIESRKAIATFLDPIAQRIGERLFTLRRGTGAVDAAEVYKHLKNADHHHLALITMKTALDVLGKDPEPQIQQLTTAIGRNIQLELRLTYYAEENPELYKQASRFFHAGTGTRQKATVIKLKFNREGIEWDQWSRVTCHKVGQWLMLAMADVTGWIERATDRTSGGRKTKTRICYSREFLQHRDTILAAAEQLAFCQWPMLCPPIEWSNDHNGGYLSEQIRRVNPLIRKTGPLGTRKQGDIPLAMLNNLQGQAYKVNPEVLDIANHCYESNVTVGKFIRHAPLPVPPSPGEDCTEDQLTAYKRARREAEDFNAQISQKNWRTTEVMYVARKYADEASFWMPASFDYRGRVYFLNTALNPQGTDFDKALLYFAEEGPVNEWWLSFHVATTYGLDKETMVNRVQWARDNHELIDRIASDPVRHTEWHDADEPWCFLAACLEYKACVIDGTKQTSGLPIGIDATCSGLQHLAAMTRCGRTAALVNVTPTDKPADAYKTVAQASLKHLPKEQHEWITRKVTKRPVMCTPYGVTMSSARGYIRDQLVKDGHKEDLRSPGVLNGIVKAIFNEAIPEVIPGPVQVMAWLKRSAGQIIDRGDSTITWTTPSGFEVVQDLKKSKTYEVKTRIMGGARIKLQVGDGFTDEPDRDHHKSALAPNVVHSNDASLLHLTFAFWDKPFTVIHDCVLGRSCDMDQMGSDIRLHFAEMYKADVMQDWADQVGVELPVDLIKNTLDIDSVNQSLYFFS
As to the kind of experiment: run-off transcription, agarose gel and RNA yield by A260. Format: biochemical. Conditions: ATP, GTP, NotI-linearized pET24-Syn5RNAP, 6 mM MgCl2, pH 8.0, no KCl, 24°C.

The target in assay [2] is T2, T7 RNA polymerase (Escherichia phage T7, UniProt P00573).
T2 construct: gene 1
T2 sequence (P00573 whole entry): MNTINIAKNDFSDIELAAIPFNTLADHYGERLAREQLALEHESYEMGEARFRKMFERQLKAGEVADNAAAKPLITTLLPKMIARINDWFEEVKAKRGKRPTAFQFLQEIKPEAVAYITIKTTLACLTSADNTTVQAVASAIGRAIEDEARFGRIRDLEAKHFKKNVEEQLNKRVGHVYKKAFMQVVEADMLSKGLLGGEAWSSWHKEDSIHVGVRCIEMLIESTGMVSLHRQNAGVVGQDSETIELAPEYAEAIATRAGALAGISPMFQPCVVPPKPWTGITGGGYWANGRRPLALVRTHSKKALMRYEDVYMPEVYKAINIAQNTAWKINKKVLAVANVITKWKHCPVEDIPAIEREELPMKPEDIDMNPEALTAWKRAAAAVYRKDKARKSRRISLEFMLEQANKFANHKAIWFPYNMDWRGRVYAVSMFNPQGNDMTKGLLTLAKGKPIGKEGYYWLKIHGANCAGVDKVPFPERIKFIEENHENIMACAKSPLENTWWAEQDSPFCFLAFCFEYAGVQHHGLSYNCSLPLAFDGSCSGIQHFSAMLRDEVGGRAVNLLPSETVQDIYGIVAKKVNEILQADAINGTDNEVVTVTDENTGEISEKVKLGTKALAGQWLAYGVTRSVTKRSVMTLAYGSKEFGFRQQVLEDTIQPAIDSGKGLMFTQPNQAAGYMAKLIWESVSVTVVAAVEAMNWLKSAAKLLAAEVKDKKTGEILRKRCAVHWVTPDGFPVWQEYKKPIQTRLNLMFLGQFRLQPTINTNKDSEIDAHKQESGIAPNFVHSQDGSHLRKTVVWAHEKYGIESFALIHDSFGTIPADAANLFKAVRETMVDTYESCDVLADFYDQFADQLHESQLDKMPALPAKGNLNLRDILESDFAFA
Described as above. It is filed as biochemical. Conditions: ATP, GTP, NotI-linearized pET24-Syn5RNAP, 6 mM MgCl2, pH 8.0, no KCl, 37°C.

Regarding `Cc1cn([C@@H]2O[C@H](COP(=O)(O)OP(=O)(O)OP(=O)(O)O)[C@@H](O)[C@H]2O)c(=O)nc1N` [5-methylcytidine-5′-triphosphate], the “run-off transcription, agarose gel and RNA yield by A260” value in assay [1] (replaces CTP at 600 µM, UTP) is “the efficiency by which Syn5 RNA polymerase incorporated 5mC and Ps-U”; in assay [2] (replaces CTP at 600 µM, UTP), “T7 RNA polymerase also incorporates 5mC and Ps-U at comparable efficiencies”.
Take `O=c1[nH]cc([C@@H]2O[C@H](COP(=O)(O)OP(=O)(O)OP(=O)(O)O)[C@@H](O)[C@H]2O)c(=O)[nH]1` [pseudouridine-5′-triphosphate]: the “run-off transcription, agarose gel and RNA yield by A260” value was “the efficiency by which Syn5 RNA polymerase incorporated 5mC and Ps-U” in assay [1] (replaces UTP at 600 µM, CTP); “T7 RNA polymerase also incorporates 5mC and Ps-U at comparable efficiencies” in assay [2] (replaces UTP at 600 µM, CTP).
